In data set [1] the target is VMAT2 (Rattus norvegicus, UniProt Q01827). As to the kind of experiment: Competition for [3H](±)TBZ binding in rat striatal homogenates. Also noted: The basal forebrain regions of rat and mouse brains were then dissected; from tissue; host or cells: rat striatum / basal forebrain homogenate. The conditions noted are these: Kd […] used for calculation.
Data set [2] deals with DAT sites (Mus musculus, UniProt Q61327). Kind of data set: Dual isotope experiment in lesioned mice, [125I]IPT.
DAT sites, sequence (Q61327 whole entry): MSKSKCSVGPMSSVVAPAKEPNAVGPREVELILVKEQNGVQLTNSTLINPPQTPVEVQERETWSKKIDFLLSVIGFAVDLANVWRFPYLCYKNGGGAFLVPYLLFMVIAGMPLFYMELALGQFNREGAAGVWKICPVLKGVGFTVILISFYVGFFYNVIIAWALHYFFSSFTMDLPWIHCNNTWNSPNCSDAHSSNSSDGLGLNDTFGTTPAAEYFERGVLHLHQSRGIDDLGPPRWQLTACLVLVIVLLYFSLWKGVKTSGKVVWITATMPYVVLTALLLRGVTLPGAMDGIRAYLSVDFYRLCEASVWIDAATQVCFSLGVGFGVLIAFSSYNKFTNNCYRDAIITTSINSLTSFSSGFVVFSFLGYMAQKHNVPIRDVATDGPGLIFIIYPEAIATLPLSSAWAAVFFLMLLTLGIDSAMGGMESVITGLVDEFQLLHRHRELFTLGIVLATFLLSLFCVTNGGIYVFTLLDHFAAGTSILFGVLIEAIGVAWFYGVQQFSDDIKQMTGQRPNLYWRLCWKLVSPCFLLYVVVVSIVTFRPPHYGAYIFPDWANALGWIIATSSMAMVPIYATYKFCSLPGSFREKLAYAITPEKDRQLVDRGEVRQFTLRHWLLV
Description: Thirty minutes after injection, the mice were sacrificed and the brains removed. Different regions corresponding to striatum (ST), hippocampus (HP), cerebellum (CB), and cortex (CX) were dissected. In particular, the lesioned region was separated from non-lesioned area of the striatal tissues. Samples were counted in a gamma counter with two different window settings for F-18 and I-125, respectively, to obtain the regional distribution of each tracer.
To measure the degree of lesion, a dual-isotope experiment comparing the striatal uptakes in lesioned vs. unlesioned sites using [^18F]FP-DTBZ was performed. A marker [^125I]IPT (selective for dopamine transporters) was injected simultaneously.
Where [3] appears, read: lesioned Mouse 1, 30 min post-injection.
The mark [4] stands for this setting: lesioned Mouse 2, 30 min post-injection.
The mark [5] stands for this setting: lesioned Mouse 3, 30 min post-injection.
[6] abbreviates: lesioned Mouse 4, 30 min post-injection.

VMAT2, sequence (Q01827 whole entry): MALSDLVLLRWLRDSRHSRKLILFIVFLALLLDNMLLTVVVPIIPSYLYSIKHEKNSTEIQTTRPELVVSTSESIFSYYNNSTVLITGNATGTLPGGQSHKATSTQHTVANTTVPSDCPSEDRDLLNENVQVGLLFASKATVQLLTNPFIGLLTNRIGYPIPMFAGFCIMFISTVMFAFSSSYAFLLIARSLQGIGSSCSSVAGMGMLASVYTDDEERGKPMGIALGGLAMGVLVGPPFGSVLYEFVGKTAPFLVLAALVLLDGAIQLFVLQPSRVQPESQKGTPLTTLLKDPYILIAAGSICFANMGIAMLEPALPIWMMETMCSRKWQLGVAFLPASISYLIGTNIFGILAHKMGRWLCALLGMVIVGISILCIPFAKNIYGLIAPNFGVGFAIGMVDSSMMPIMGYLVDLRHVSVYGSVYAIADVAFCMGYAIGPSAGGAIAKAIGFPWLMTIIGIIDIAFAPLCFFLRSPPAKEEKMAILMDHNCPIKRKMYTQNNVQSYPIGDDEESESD

Regarding `COc1cc2c(cc1O)CCN1CC(CC(C)C)C(O)CC21` (racemic) [3,9-desmethyl-(±)DTBZ, (±)-9-O-Desmethyldihydrotetrabenazine, reference compound], in data set [1] ([3H](±)TBZ 1.0-1.5 nM), the Ki (in general, the equilibrium dissociation constant of an inhibitor or competing ligand from its target) was 11.8 ± 1.7 nM.
Regarding `COc1cc2c(cc1OCCCF)CCN1CC(CC(C)C)C(O)CC21` (racemic) [Compound 6b, (±)-2-hydroxy-3-isobutyl-9-(3-fluoropropoxy)-10-methoxy-1,2,3,4,6,7-hexahydro-11bH-benzo[a]quinolizine], the Ki in data set [1] ([3H](±)-TBZ) is 0.19 ± 0.04 nM.
Same read-out and setting: the figure for `COc1cc2c(cc1OCCCF)CCN1CC(CC(C)C)C(O)CC21` (single isomer, unassigned) [FP-(−)-DTBZ] is greater than 3000 nM.
Take `COC(=O)C1C(c2ccc(Cl)cc2)CC2CCC1N2CC=CI` (stereo not drawn) [[^125I]IPT, N-(3′-iodopropen-2′-yl)-2-beta-carbomethoxy-3-beta-(4-chlorophenyl)tropane]: in data set [2] (setting [3]), the “% StrL/StrN” value turned out to be 32.6%, the “Regional brain distribution Cerebellum (CB)” value came to 0.96 % dose/g, the “Regional brain distribution Cortex” value was determined as 0.69 % dose/g and the “Regional brain distribution Hippocampus” value was 0.87 % dose/g. In addition, in data set [2] (setting [3]), the “Regional brain distribution Hypothalamus” value was 1.28 % dose/g; the “Regional brain distribution Remainder” value was 1.34 % dose/g; the “ratio vs. CB, Cerebellum (CB)” value is given as 1.00; the “ratio vs. CB, Cortex” value was 0.72. In data set [2] (setting [3]), the “ratio vs. CB, Hippocampus” value is listed as 0.91; the “ratio vs. CB, Hypothalamus” value is listed as 1.34; the “ratio vs. CB, Remainder” value is 1.40; the “ratio vs. CB, Stratum N” value was 9.63. Moreover, the “ratio vs. CB, Striatum L” value in data set [2] (setting [3]) is 3.14. In data set [2] (setting [4]), the “% StrL/StrN” value is 55.7%, the “Regional brain distribution Cerebellum (CB)” value is recorded as 0.77 % dose/g, the “Regional brain distribution Cortex” value turned out to be 0.62 % dose/g and the “Regional brain distribution Hippocampus” value came out at 0.70 % dose/g. In data set [2] (setting [4]), the “Regional brain distribution Hypothalamus” value is 1.22 % dose/g; the “Regional brain distribution Remainder” value amounted to 1.16 % dose/g; the “ratio vs. CB, Cerebellum (CB)” value is reported as 1.00; the “ratio vs. CB, Cortex” value is 0.80. Moreover, in data set [2] (setting [4]), the “ratio vs. CB, Hippocampus” value was 0.90; the “ratio vs. CB, Hypothalamus” value is listed as 1.58; the “ratio vs. CB, Remainder” value was determined as 1.49; the “ratio vs. CB, Stratum N” value amounted to 8.17. For the same compound, the “ratio vs. CB, Striatum L” value in data set [2] (setting [4]) is recorded as 4.55. For the same compound, in data set [2] (setting [5]), the “% StrL/StrN” value is reported as 52.3%, the “Regional brain distribution Cerebellum (CB)” value was 0.81 % dose/g, the “Regional brain distribution Cortex” value is 0.66 % dose/g and the “Regional brain distribution Hippocampus” value is 0.81 % dose/g. Moreover, in data set [2] (setting [5]), the “Regional brain distribution Hypothalamus” value is 1.42 % dose/g; the “Regional brain distribution Remainder” value amounted to 1.57 % dose/g; the “ratio vs. CB, Cerebellum (CB)” value is given as 1.00; the “ratio vs. CB, Cortex” value came to 0.81. Further, in data set [2] (setting [5]), the “ratio vs. CB, Hippocampus” value amounted to 1.00; the “ratio vs. CB, Hypothalamus” value is listed as 1.76; the “ratio vs. CB, Remainder” value amounted to 1.95; the “ratio vs. CB, Stratum N” value was 11.3. Besides, in data set [2] (setting [5]), the “ratio vs. CB, Striatum L” value amounted to 5.90. For the same compound, in data set [2] (setting [6]), the “% StrL/StrN” value is given as 88.7%, the “Regional brain distribution Cerebellum (CB)” value came to 0.76 % dose/g, the “Regional brain distribution Cortex” value worked out at 0.87 % dose/g and the “Regional brain distribution Hippocampus” value was 0.62 % dose/g. Further, in data set [2] (setting [6]), the “Regional brain distribution Hypothalamus” value worked out at 0.99 % dose/g; the “Regional brain distribution Remainder” value is reported as 1.16 % dose/g; the “ratio vs. CB, Cerebellum (CB)” value came out at 1.00; the “ratio vs. CB, Cortex” value is reported as 1.15. Further, in data set [2] (setting [6]), the “ratio vs. CB, Hippocampus” value worked out at 0.81; the “ratio vs. CB, Hypothalamus” value was found to be 1.31; the “ratio vs. CB, Remainder” value came to 1.53; the “ratio vs. CB, Stratum N” value came to 10.2. The “ratio vs. CB, Striatum L” value in data set [2] (setting [6]) came out at 9.07.

The record behind these values is patent publication US8562949B2, “Radiolabeled dihydrotetrabenazine derivatives and their use as imaging agents” (The Trustees of the University of Pennsylvania, priority 2006, dated 2013).
